Article PMC11681159, “Bee pollen peptides as potent tyrosinase inhibitors with anti-melanogenesis effects in murine b16f10 melanoma cells and zebrafish embryos” (Scientific Reports, 2024)
Ends that are not written are not given here.

Test system: Mitf
Assay: Western blot, MITF protein
Format: cell-based, mouse
Experimental: Following this process, the cells were lysed using NP40 Cell Lysis Buffer with protease inhibitor cocktail supplementation. Next, 12% sodium dodecyl sulfate poly-acrylamide (SDS-PAGE) gel electrophoresis was used to extract equal quantities of protein from each sample, with subsequent transfer to PVD (polyvinylidene fluoride) membranes (Millipore, Bedford, MA, USA). The membrane was blocked overnight with 3% skimmed milk (w/v) in TBST with 0.5% Tween 20 at 4 °C and then washed thrice in TBST. The rabbit polyclonal anti-TYR antibody (dilution 1:1000), anti-TRP-1 antibody (dilution 1:1000), anti-TRP-2 antibody and anti-MITF antibody (dilution 1:1000) obtained from Abcam (USA), were used respectively to detect the TYR, TRP-1, TRP-2, and MITF bands. After thrice washing again in TBST, secondary antibodies (dilution 1:5000) were added to the membranes for 1 h of incubation at room temperature before another triplicate washing in TBST. Enhanced chemiluminescence horseradish peroxidase (HRP) substrates (GeneDirex, Taiwan) were then used in line with the guidance of the manufacturer to detect bound antibodies, while β-actin antibody was employed to evaluate the loading control. Gel band detection was performed using ImageJ software (version 1.54), available at https://imagej.net/ij/. The software facilitated the identification and quantification of protein expression levels.

VDGYPAAGY [VY-9, Val-Asp-Gly-Tyr-Pro-Ala- Ala-Gly-Tyr]
MITF protein expression vs control (1.6 µM, B16F10, 48 h): the expression of all proteins decreased compared to the control | concentration from which MITF protein expression decreased (B16F10, 48 h, western blot): 0.4 µM | MITF protein expression vs arbutin (VY-9 1.6 µM vs arbutin 0.2 mM, 48 h): only MITF showed a lower expression level
